Measurements taken from US20170015649A1, “N-Thio-anthranilamid compounds and their use as pesticides” (BASF SE, priority 2005, published 2017).
Where two headings read alike, the source gives them in different places.

Assays:
[1] = system: Tobacco Budworm (Heliothis virescens); test: whole plant or invertebrate; conditions: 144 h
[2] = system: Silverleaf Whitefly (Bemisia argentifolii); test: Activity against silverleaf whitefly, cotton cotyledon dip; type: in vivo; conditions: 72 h, cotyledons dipped, adults, 3 days after treatment
Experimental: (§1) The active compounds were formulated in 50:50 acetone:water and 100 ppm Kinetic™ surfactant.
Selected cotton plants were grown to the cotyledon state (one plant per pot). The cotyledons were dipped into the test solution to provide complete coverage of the foliage and placed in a well-vented area to dry. Each pot with treated seedling was placed in a plastic cup and 10 to 12 whitefly adults (approximately 3-5 day old) were introduced. The insects were collected using an aspirator and an 0.6 cm, non-toxic Tygon™ tubing (R-3603) connected to a barrier pipette tip. The tip, containing the collected insects, was then gently inserted into the soil containing the treated plant, allowing insects to crawl out of the tip to reach the foliage for feeding. The cups were covered with a reusable screened lid (150 micron mesh polyester screen PeCap from Tetko Inc). Test plants were maintained in the holding room at about 25° C. and 20-40% relative humidity for 3 days avoiding direct exposure to the fluorescent light (24 hour photoperiod) to prevent trapping of heat inside the cup. Mortality was assessed 3 days after treatment of the plants.

[3] = system: Vetch Aphid (Megoura viciae); test: Activity against vetch aphid, bean leaf disks; type: in vivo; conditions: foliar, 144 h, 2500 ppm, leaf disks sprayed with 2.5 μl, 6 days, compared to 0% mortality of untreated controls, read-out: mortality
Experimental: Bean leaf disks were placed into microtiterplates filled with 0.8% agar-agar and 2.5 ppm OPUS™. The leaf disks were sprayed with 2.5 μl of the test solution and 5 to 8 adult aphids were placed into the microtiterplates which were then closed and kept at 22-24° C. and 35-45% under fluorescent light for 6 days. Mortality was assessed on the basis of vital, reproduced aphids. Tests were replicated 2 times.

[4] = system: Cotton Aphid (Aphis gossypii); test: Activity against cotton aphid, cotton cotyledon dip; type: in vivo; conditions: 120 h, cotyledons dipped, after 5 days
Source text: as §1
Cotton plants at the cotyledon stage (one plant per pot) were infested by placing a heavily infested leaf from the main colony on top of each cotyledon. The aphids were allowed to transfer to the host plant overnight, and the leaf used to transfer the aphids was removed. The cotyledons were dipped in the test solution and allowed to dry. After 5 days, mortality counts were made.

[5] = system: Southern Armyworm (Spodoptera eridania), 2nd Instar Larvae; test: whole plant or invertebrate; type: in vivo; conditions: in Phaseolus lunatus, foliar, 120 h, 300 ppm, leaf dipped, at 5 days, read-out: mortality
Experimental: The active compounds were formulated for testing the activity against insects and arachnids as a 10.000 ppm solution in a mixture of 35% acetone and water, which was diluted with water, if needed.
A Sieva lima bean leaf was dipped in the test solution and allowed to dry. The leaf was then placed in a petri dish containing a filter paper on the bottom and ten 2nd instar caterpillars. At 5 days, observations are made of mortality and reduced feeding.

[6] = system: Boll Weevil (Anthonomus grandis); test: Activity against boll weevil, eggs in microtiterplates; type: in vivo; conditions: eggs sprayed with 20 μl test solution, 3 to 5 days
Experimental: 10 to 15 eggs were placed into microtiterplates filled with 2% agar-agar in water and 300 ppm formaline. […] Mortality was assessed on the basis of the remaining unhatched eggs or larvae on the agar surface and/or quantity and depth of the digging channels caused by the hatched larvae. Tests were replicated 2 times.

[7] = system: Diamond Back Moth (Plutella xylostella); test: Activity against diamond back moth, cabbage leaf disk dip; type: in vivo; conditions: foliar, 300 ppm, leaf disk dipped, third instar larvae, after 72 h, read-out: mortality
Experimental: The active compounds were formulated in 50:50 acetone:water and 0.1% (vol/vol) Alkamuls EL 620 surfactant. A 6 cm leaf disk of cabbage leaves was dipped in the test solution for 3 seconds and allowed to air dry in a Petri plate lined with moist filter paper. The leaf disk was inoculated with 10 third instar larvae and kept at 25-27° C. and 50-60% humidity for 3 days. Mortality was assessed after 72 h of treatment.

[8] = system: Mediterranean Fruitfly (Ceratitis capitata); test: Activity against Mediterranean fruitfly, eggs in microtiterplates; type: in vivo; conditions: 144 h, eggs sprayed with 5 μl test solution, 6 days
Experimental: 50 to 80 eggs were placed into microtiterplates filled with 0.5% agar-agar and 14% diet in water. […] Mortality was assessed on the basis of the agility of the hatched larvae. Tests were replicated 2 times.

[9] = system: Yellowfever Mosquito (Aedes aegyptii) Larvae; test: Activity against mosquito larvae via water treatment; type: in vivo; conditions: read-out: mortality of yellowfever mosquito
Experimental: 11. Activity Against Yellowfever Mosquito (Aedes aegyptii), House Mosquito (Culex quinquefasciatus) and Malaria Mosquito (Anopheles albimanus) Larvae Via Water Treatment
Well plates were used as test arenas. The active ingredient was dissolved in acetone and diluted with water to obtain the concentrations needed. The final solutions containing appr. 1% acetone were placed into each well. Approximately 10 mosquito larvae (4th-instars) in 1 ml water were added to each well. Larvae were fed one drop of liver powder each day. The dishes were covered and maintained at 22° C. Mortality was recorded daily and dead larvae and live or dead pupae were removed daily. At the end of the test remaining live larvae were recorded and percent mortality was calculated.

[10] = system: Yellowfever Mosquito (Aedes aegyptii); test: Activity via glass contact; type: in vivo
Source text: 10. Activity Against Argentine Ant (Linepithema humile), Harvester Ant (Pogonomyrmex Californicus), Acrobat Ant (Crematogaster Spp.), Carpenter Ant (Camponotus floridanus), Fire Ant (Solenopsis invicta), House Fly (Musca domestica), Stable Fly (Stomoxys calcitrans), Flesh Fly (Sarcophaga sp.), Yellowfever Mosquito (Aedes aegyptii), House Mosquito (Culex quinquefasciatus), Malaria Mosquito (Anopheles albimanus), German Cockroach (Blattella Germanica), Cat Flea (Ctenocephalides felis), and Brown Dog Tick (Rhipicephalus sanguineus) Via Glass Contact
Glass vials were treated with 0.5 ml of a solution of active ingredient in acetone and allowed to dry. Insects or ticks were placed into each vial together with some food and moisture supply.

[11] = system: Oat Aphid (Rhopalosiphum padi); test: Activity against oat aphid, barley leaf disks; type: in vivo; conditions: 2500 ppm; leaf disks sprayed with 2.5 μl; 5 days; compared to 0% mortality of untreated controls
Experimental: Barlay leaf disk were placed into microtiterplates filled with 0.8% agar-agar and 2.5 ppm OPUS™. The leaf disks were sprayed with 2.5 μl of the test solution and 3 to 8 adult aphids were placed into the microtiterplates which were then closed and kept at 22-24° C. and 35-45% humidity under fluorescent light for 5 days. Mortality was assessed on the basis of vital aphids. Tests were replicated 2 times.

[12] = 10 ppm, water treatment, 4th-instar larvae

melting point [°C]	Structure (SMILES)	mortality at 2500 ppm [1] [%]	mortality at 300 ppm [2] [%]	mortality at 2500 ppm [3] [%]	mortality at 300 ppm [4] [%]	mortality at 300 ppm [5] [%]	mortality at 2500 ppm [6] [%]	mortality at 300 ppm [7] [%]	mortality at 2500 ppm [8] [%]	mortality at 10 ppm [9, 12] [%]	mortality at 10 ppm [10] [%]	mortality [11]	mortality at 10 ppm [9] [%]
–	Cc1cc(Cl)cc(C(=O)N=S(C)C)c1NC(=O)c1cc(C(F)(F)F)nn1-c1ncccc1Cl [I.3-8]	> 75	> 90	> 75	> 50	> 75	> 75	> 75	> 75	–	–	–	–
–	CCS(C)=NC(=O)c1cc(Cl)cc(C)c1NC(=O)c1cc(C(F)(F)F)nn1-c1ncccc1Cl (centres unmarked) [I.3-28]	> 75	> 90	> 75	> 50	> 75	> 75	> 75	> 75	–	–	–	–
–	Cc1cc(I)cc(C(=O)N=S(C)C)c1NC(=O)c1cc(Br)nn1-c1ncccc1Cl [I.3-22]	> 75	> 90	> 75	> 50	> 75	> 75	> 75	> 75	–	–	–	–
–	Cc1cccc(C(=O)N=S(C)C)c1NC(=O)c1cc(Br)nn1-c1ncccc1Cl [I.3-7]	> 75	–	> 75	> 50	> 75	> 75	> 75	–	> 70	–	–	–
–	CCS(C)=NC(=O)c1cc(Cl)cc(C)c1NC(=O)c1cc(Br)nn1-c1ncccc1Cl (centres unmarked) [I.3-25]	> 75	> 90	> 75	> 50	> 75	> 75	> 75	> 75	–	–	–	–
183	Cc1cccc(C(=O)NS(=O)(=O)N(C)C)c1NC(=O)c1cc(C(F)(F)F)nn1-c1ncccc1Cl	–	–	–	–	–	–	–	–	–	–	–	–
–	CCS(C)=NC(=O)c1cccc(C)c1NC(=O)c1cc(Br)nn1-c1ncccc1Cl (centres unmarked) [I.3-26]	> 75	> 90	> 75	> 50	> 75	> 75	> 75	> 75	–	–	–	–
191	CCN(CC)S(=O)(=O)NC(=O)c1cccc(C)c1NC(=O)c1cc(Br)nn1-c1ncccc1Cl	–	–	–	–	–	–	–	–	–	–	–	–
–	Cc1cc(Cl)cc(C(=O)N=S(C)C)c1NC(=O)c1cc(Br)nn1-c1ncccc1Cl [I.3-4]	> 75	> 90	> 75	> 50	> 75	> 75	–	–	> 70	> 70	–	–
–	CCS(C)=NC(=O)c1cc(I)cc(C)c1NC(=O)c1cc(Br)nn1-c1ncccc1Cl (centres unmarked) [I.3-27]	> 75	> 90	> 75	> 50	> 75	> 75	> 75	> 75	–	–	–	–
–	Cc1cc(Cl)cc(C(=O)N=S(C(C)C)C(C)C)c1NC(=O)c1cc(C(F)(F)F)nn1-c1ncccc1Cl [I.3-1]	–	–	–	–	–	–	–	–	–	–	over 75%	–
–	CCN(CC)S(=O)(=O)NC(=O)c1cc(Cl)cc(C)c1NC(=O)c1cc(C(F)(F)F)nn1-c1ncccc1Cl [I.1-37]	–	–	–	–	–	–	–	–	–	–	–	> 70
65	CCS(C)=NC(=O)c1cc(C#N)cc(C)c1NC(=O)c1cc(C(F)(F)F)nn1-c1ncccc1Cl (centres unmarked)	–	–	–	–	–	–	–	–	–	–	–	–
